# Measured values taken from US10925974B2, “Adipose tissue-targeting polypeptide-verbascoside-nanogold particle derivative, preparation method and application thereof” (Affiliated Stomatological Hospital of Nanjing Medical …, priority 2018, dated 2021).
# Marks after values point to notes of the source that are not given here. Ends that are not written are not given here.
# Assays:
# [1] = test system: visceral fat and subcutaneous fat of mice; test: Storage of visceral fat and subcutaneous fat of mice provided with high fat feed; format: in vivo
# Experimental: 1) Providing an intraperitoneal administration to the high-fat-fed obese mice for 12 weeks according to the experimental procedure of Embodiment 3;
# 2) Fasting the mice of each group for 12 hours, and then anesthetizing with 3% pentobarbital sodium having a concentration of 45 mg/kg via intraperitoneal injection, and accurately weighing the mice;
# 3) Disinfecting routinely and performing laparotomy, rapidly extracting and weighing the adipose tissue around the kidney, adipose tissue around the mesentery, adipose tissue around the epididymis, and abdominal subcutaneous adipose tissue to obtain wet weights thereof (the abdominal subcutaneous adipose tissue range: abdomen below the rib arch and above the groin, both sides are bounded by the midaxillary line);
# 4) Calculating according to the following formula: wet weight of the abdominal adipose; total weight of the fat pad (g)=adipose tissue around the kidney+adipose tissue around the epididymis; body fat content=the total weight of the fat pad (g)/the total body weight of mice (g);
# [2] = Inhibition of weight gain of mice fed with high-fat feed; format: in vivo
# From the text: Experimental Animals: 3-4 weeks old male mice and feed provided by the Laboratory Animal Center of Nanjing Medical University, license No.: SCXK (Su) 2011-0003. The animals were randomly caged, with unlimited drink and feed. Experimental drugs: polypeptide-verbascoside-nanogold particle derivative (adipose tissue-targeting), polypeptide-verbascoside derivative, polypeptide-nanogold derivative, and verbascoside-nanogold derivative as experimental groups, and physiological saline for negative control. 2) Raising 60 male mice of 6 weeks old in the clean environment of Experimental Animal Center of Nanjing Medical University, at a temperature of (21±2) ° C., a humidity of (35±2) %, an intermittent illumination for 12 hours, with unlimited drink and feed; wherein the drinking water is distilled water prepared by the experimental animal center; 3) After 2-3 days of adaptive feeding, randomly selecting 10 mice as a blank control group provided with regular feed, while providing the remaining 50 rice with high fat feed (cholesterol 1 wt. %, lard 20 wt. %, bile salt 0.2 wt. %, and regular feed 78.8 wt. %); measuring the body weight of the mice in the two groups every 2 weeks; analyzing the obtained body weight data with statistical methods, and the results are shown in FIG. 3, wherein *P<0.05, **P<0.01, and ***P<0.001 indicate body weight data of the experimental group compared with those of the blank control group fed with regular feed; 4) Randomly dividing the obese mice fed with high-fat feed into several groups, with each group of 10 mice; injecting (exemplified by intraperitoneal injection) physiological saline (0.03 mL of physiological saline per 30 g body weight), polypeptide-verbascoside derivative (15 mg of derivative per kg body weight, dissolved in DMSO), polypeptide-nanogold derivative (15 mg of derivative per kg body weight, dissolved in DMSO), verbascoside-nanogold derivative (15 mg of derivative per kg body weight, dissolved in DMSO), and polypeptide-verbascoside-nanogold particle derivative (15 mg of derivative per kg body weight, dissolved in DMSO) at 9:30 am every day, respectively.
# [3] = high fat feed mice, 15 mg/kg i.p. daily for 12 weeks, wet weight
substance,measurement,setting,value
"polypeptide-verbascoside: ester of adipose tissue-targeting polypeptide CKGGRAKDC (C-terminal acyl chloride) with verbascoside sodium phenolate, per Embodiment 1 (not fully specified (C-terminus); cysteine pairing not given here)",Body weight,"[1]; Table 3, high fat feed mice, 12 weeks, after 12 h fasting",35.46 ± 1.57 g
same,Body weight,"[1]; Table 4, high fat feed mice, 12 weeks",35.26 ± 1.77 g
same,SF-FAT,"[1]; abdominal subcutaneous fat, high fat feed mice, 12 weeks",0.79 ± 0.12 g
same,Total weight of the fat pad,"[1]; adipose tissues around kidney + around epididymis, high fat feed mice, 12 weeks",2.27 ± 0.14 g
same,wet weight of the visceral adipose tissues of mice,"[1]; after treatment, compared with the model control group (#p<0.05)",significantly reduced
same,Total weight of visceral adipose tissues,"[1]; high fat feed mice, 15 mg/kg i.p. daily for 12 weeks, Table 2",5.72 ± 0.17 g
same,Weight of visceral adipose tissues: Around epididymis,[1]; [3],1.21 ± 0.12 g
same,Weight of visceral adipose tissues: Around kidney,[1]; [3],0.61 ± 0.17 g
same,Weight of visceral adipose tissues: Around omentum and mesentery,[1]; [3],0.32 ± 0.05 g
same,SF-FAT/body weight,"[1]; high fat feed mice, 12 weeks",2.27 ± 0.23
same,VF-FAT/SF-FAT,"[1]; high fat feed mice, 12 weeks",2.63 ± 0.29
same,Body fat index,"[1]; total weight of the fat pad / total body weight, high fat feed mice, 12 weeks",6.13 ± 0.41 %
same,VF-FAT,"[1]; visceral fat, Table 4, high fat feed mice, 12 weeks",5.78 ± 0.17 g
same,Weight 6 weeks after administration,"[2]; high fat feed mice, 15 mg/kg intraperitoneal injection every day, 6 weeks, n=10",30.6 ± 0.3 g
same,Weight 12 weeks after administration,"[2]; high fat feed mice, 15 mg/kg intraperitoneal injection every day, 12 weeks, n=10",35.5 ± 1.6 g
same,Initial Weight,"[2]; high fat feed obese mice, before administration (baseline), n=10",29.3 ± 0.5** g
same,weight gains of mice,"[2]; treatment for 6 weeks, compared with the model control group (#p<0.05)",significantly inhibited
